“Also recorded” adds a separate entry of the source.
Legend:
Mef2c-het mice [1] = assay: Hole-board exploration test; format: in vivo, mouse; conditions: chronic treatment
Description: (§1) Mef2c heterozygous knockout (Mef2c-het) mice were created by crossing mice carrying the conventional exon 2-deleted allele of Mef2c (Mef2c^Δ2) with their WT littermates. All procedures for maintaining and using these mice were approved by the Institutional Animal Care and Use Committee (IACUC) at the Sanford Burnham Prebys Medical Discovery Institute. In this study, only male mice were used for the behavioral assays to insure uniformity (either with or without drug treatment). Chronic treatment with memantine, NitroSynapsin (both at 4.6 μmol/kg body weight) or vehicle (PBS) was administered via i.p. injection, twice a day for at least 3 months, starting at ˜2.5 weeks of age. This age was chosen because mice are still juveniles and thus treatment could begin in human at an equivalent stage.
The apparatus consisted of a Plexiglas cage (32×32×30 cm) with 16 holes in a format of 4×4 (each 3 cm in diameter) equally spaced on an elevated floor. The explorative activity including the number of head-dips and the time spent head-dipping were measured for 5 min.

Mef2c-het mice [2] = assay: Immunohistochemistry and stereological cell counting in hippocampus after chronic treatment; format: in vivo, mouse
Description: as §1
Mice were perfused with PBS buffer and then 2% paraformaldehyde in PBS (PFA).
After perfusion, brains were removed and placed into 2% PFA overnight for post-fixation and then sunk in 30% sucrose in PBS prior to freezing. Cryostat sections were cut at a thickness of 15 μm. Sections were soaked in Antigen Unmasking Solution (Vector) and microwaved for 30 s, followed by permeabilization with 0.25% Triton X-100 in PBS for 15 min. Primary antibodies were incubated for 16 h at 4° C. and fluorescence-conjugated secondary antibodies for 2 h at 25° C. Numerous unstained cells in each field served as an internal control for staining specificity. Primary antibodies included: NeuN (mouse, EMD Millipore), activated caspase-3 (rabbit, Cell Signaling), VGLUT1 (guinea pig, SYSY), VGLUT2 (rabbit, SYSY), VGAT (mouse, SYSY), synaptophysin (mouse, Sigma), GFAP (mouse, Sigma), PCNA (mouse, Santa Cruz), DCX (goat, Santa Cruz). TUNEL assay was performed to assess apoptosis using the Roche In Situ Cell Death Detection Kit per vender's instruction. The number of cells positive or percent area occupied by NeuN, activated caspase-3, TUNEL, GFAP, PCNA, or DCX was counted in specific brain regions using an optical dissector, or estimated by quantitative confocal immunohistochemistry or optical density, as described previously.

Mef2c-het mice [3] = assay: Three-chamber social interaction test; format: in vivo, mouse
Description: as §1
This test was originally developed by the Crawley group for an animal model of autism. Autistic individuals show aberrant reciprocal social interaction, including low levels of social approach and unusual modes of interaction. A social interaction apparatus consisting of a rectangular, three chambered Plexiglas box, with each chamber measuring 20 cm (length)×40.5 cm (width)×22 cm (height) was used. Walls dividing the chamber were clear with small semicircular openings (3.5 cm radius), allowing access into each chamber. The middle chamber was empty and the two outer chambers contained small, round wire cages (Galaxy Cup, Spectrum Diversified Designs, Inc., Streetsboro, Ohio). The mice were habituated to the entire apparatus for 5 min. To assess social interaction, mice were returned to the middle chamber, this time with a stranger mouse (C57BL/6J of the same sex tethered to the wire cage). Time spent in the chamber with the stranger mouse and time spent in the empty wire cage-containing chamber were each recorded for 5 min, as was the number of entries into each chamber. Experimental mice were tested once, and the stranger C57BL/6J mice were used for up to 6 tests.

Tsc2+/- mice = assay: Fear conditioning test; format: in vivo, mouse; conditions: two-and-a-half-day treatment, last dose 3 hours before training
Description: To determine the effects of eNMDAR antagonists on the brain histology of Tsc2^+/− mice, quantitative confocal immunohistochemistry was used to analyze coronal brain slices from 3-month-old wild-type (WT) and Tsc2^+/− mice that had been treated for two and a half days with vehicle, memantine or NitroSynapsin. Tsc2+/− mice on the C57Bl/6J background received via the intraperitoneal route either vehicle or a loading dose of 92 μmol/kg of memantine or NitroSynapsin, followed by 4.6 μmol/kg of drug twice daily for two-and-a-half-days, with the last dose 3 hours prior to the behavioral training session (for a total of five drug injections). This dosing regimen yields an effective concentration of drug at NMDARs in the brain of 1-10 μM.
Fear conditioning tests were performed on three-month-old Tsc2^+/+ and Tsc2^+/− mice to explore the effects of eNMDAR antagonists on anxiety, and learning and memory deficits in Tsc2^+/− mice. Vehicle, memantine or NitroSynapsin were administered for two and a half days, with the last dose of drug occurring 3-hours prior to the first training session. […] Freezing time of three-month-old WT and Tsc2^+/− transgenic mice treated with vehicle, memantine or NitroSynapsin in fear-conditioning trials. […] Values are mean+s.e.m. (n=7-12 mice per group). […]

[4] = tested on: MeCP2 knockout (KO) mouse model of Rett syndrome; assay: Rotarod test; format: in vivo; conditions: MeCP2 KO mice
Method: Mice were placed on the stationary cylinder and the cylinder then slowly accelerated to 10 revolutions/min. The total time at 10 rpm before a fall from the cylinder was recorded.

Mef2c-het mice [5] = assay: Morris water maze (spatial learning and memory); format: in vivo, mouse
Description: as §1
We tested spatial reference learning and memory using a version of the conventional Morris water maze. The mice were trained to swim to a platform 14 cm in diameter and submerged 1.5 cm beneath the surface of the water. The platform was invisible to the mice while swimming. […] Mice were given 4 trials a day for as many days as necessary to reach the criterion (<20 s mean escape latency). Retention of spatial training was assessed 24 h after the last training trial. Both probe trials consisted of a 60-s free swim in the pool without the platform. The ANY-maze video tracking system (Stoelting Co.) was used to videotape all trials for automated analysis.

SMILES: CCC12CC3(N)CC(CC)(C1)CC(O[N+](=O)[O-])(C3)C2 [NitroSynapsin]
- head-dips per hole (repetitive behavior) (Mef2c-het mice [1]): corrected the abnormal repetitive behavior
- PV-immunoreactive synapses (% area) (Mef2c-het mice [2]): significantly increased; also recorded: significantly ameliorated
- TUNEL-positive neurons, hippocampal CA3 (Mef2c-het mice [2]): reduced back to normal; also recorded: ameliorated in Het/N mice
- VGAT immunoreactivity in hippocampus (Mef2c-het mice [2]): normalized; also recorded: rescue
- VGLUT1 immunoreactivity in hippocampus (Mef2c-het mice [2]): unaltered
- VGLUT2 immunoreactivity in hippocampus (Mef2c-het mice [2]): normalized; also recorded: rescue
- activated caspase-3-positive neurons, hippocampal CA3 (Mef2c-het mice [2]): reduced back to normal; also recorded: ameliorated in Het/N mice
- number of GFAP+ cells (astrocytes) in hippocampus (Mef2c-het mice [2]): normalized the number of GFAP+ cells; also recorded: restored to WT levels
- ratio of VGLUT1/VGAT (Mef2c-het mice [2]): normalized; also recorded: rescue
- ratio of VGLUT2/VGAT (Mef2c-het mice [2]): normalized; also recorded: rescue
- total number of NeuN+ cells in hippocampus (Mef2c-het mice [2]; optical dissector): significantly greater than in Het/V mice; also recorded: significantly greater effect of NitroSynapsin over memantine; also recorded: significantly greater than in vehicle (V)-treated mice; also recorded: rescue
- social ability: time in chambers, number and duration of visits (Mef2c-het mice [3]; Mef2c-het mice, chronic treatment): improved this abnormal social behavior; also recorded: rescued aberrant social ability
- number of social visits (S1 minus E), NitroSynapsin vs equimolar memantine (Mef2c-het mice [3]; Mef2c-het mice, head-to-head comparison): demonstrated the superiority of NitroSynapsin; also recorded: significantly greater than that of memantine (M)-treated mice
- social behavior of WT mice (Mef2c-het mice [3]; WT mice, 3-month treatment): did not significantly alter the social behavior of WT mice
- context discrimination (freezing time, training vs novel context) (Tsc2+/- mice): all improved; also recorded: normalizing context discrimination; also recorded: improved the ability to discriminate context in Tsc2^+/− mice to normal WT levels; also recorded: normalized context discrimination
- rotarod performance (time at 10 rpm before a fall) [4]: improved motor behavior; also recorded: significantly improved motor performance
- latency of finding hidden platform during training sessions (Mef2c-het mice [5]; Mef2c-het mice, 4.6 μmol/kg i.p. twice a day, 3 months): improved performance relative to vehicle
- probe test, time in target vs opposite quadrant (memory retention) (Mef2c-het mice [5]; Mef2c-het mice, 4.6 μmol/kg i.p. twice a day, 3 months, 24 h after last training): normalized memory function; also recorded: rescued this effect
- effect on Morris water maze in WT mice (Mef2c-het mice [5]; WT mice, 3-month treatment): no effects
